Values after ≈ are worked out from the molar mass of the structure shown. Like-named read-outs stand apart in the source and are kept apart here. Each block holds one compound with its values, some of them ahead of it.
Key:
mycoplasma = conditions: in words, background; cited from earlier work
A. laidlawii PG-8 = experiment: Anti-mycoplasmal activity (MIC, MMC), liquid dilution method; format: cell-based; conditions: Acholeplasma laidlawii
Description: (§1) The minimum growth inhibitory concentration (MIC, μg/ml) and minimum mycoplasmacidal concentration (MMC, μg/ml) of test chemicals were measured by the liquid dilution method. The method of measuring MIC in this example differs from that used in Test Example 1.
(§2) A 1,000 μg/ml aqueous solution of a test chemical was prepared, and diluted to 5 times with a preculture medium. The dilution (200 μg/ml) was serially diluted twofold with the same medium in a 8-well reservoir. Fifty microliters of each diluted solution was distributed in the wells of a microplate. A well to which no test chemical was added was used as a control.
(§3) A mycoplasma suspension for inoculation prepared as in Test Example 1 was pipetted in an amount of 50 microliters to each of the wells. The microplates were sealed by a plate seal, shaken by a micromixer, and cultivated at 37° C. for 5 days. In the control to which no test chemical was added, color change of the medium by the growth of mycoplasma was observed after two days from the start of the cultivation. At this time, 3 microliters of the liquid culture was inoculated in drug-free Chanock agar medium by using a Cathra-replicator. The liquid culture and the agar medium were further cultivated at 37° C. for 3 days (anaerobically in the case of M. orale, and aerobically in the case of A. laidlawii and M. arginini). MIC and MMC were determined from the results of observation on the 5th day. MIC was defined as the lowest concentration of the test chemical at which growth of mycoplasma in the drug-containing liquid medium was not noted, and MMC, as that in the drug-free agar medium.

A. laidlawii PG8 = experiment: Anti-mycoplasmal activity (MIC), agar-dilution method; format: cell-based; conditions: Acholeplasma laidlawii
Description: (§4) The minimum growth inhibitory concentrations (MIC; μg/ml) of the test chemicals were measured by the agar-dilution method.
(§5) (1) Preparation of a mycoplasma suspension for inoculation
(§6) A stored frozen suspension of mycoplasma (0.2 to 0.3 ml) was inoculated in 2 to 3 ml of a preculture medium to be described later. It was serially diluted tenfold until the dilution ratio reached 10,000 times. These diluted solutions were cultivated at 37° C. for 2 to 7 days. A culture having the highest dilution ratio was selected from those cultures in which a color change of the media was noted as a result of mycoplasma growth. It was diluted to 100 times with the preculture medium to prepare a mycoplasma suspension for inoculation.
(§7) The following preculture media were used.
(§8) For Mycoplasma pneumoniae and Acholeplasma laidlawii, Chanock liquid medium containing 0.5% glucose (pH 7.8) [Library of Bacteriology 2, "Procedures for Isolation and Identification of Human, Animal and Plant Mycoplasmas", edited by Japanese Society for Bacteriology, page 8 (1982), Saikon Publishing Co.] was used.
(§9) (2) Preparation of agar plates containing the test chemicals
(§10) A 1,000 μg/ml aqueous solution of each test chemical was prepared (a difficultly-soluble chemical was dissolved by adding an equimolar amount of sodium hydroxide; the same applies hereinafter). The solution was used as a base solution and its twofold serial dilutions were prepared. The diluted solutions were pipetted on plastic petri dishes each in an amount of 1 ml. The Chanock agar medium (for Mycoplasma hyorhinis, 0.5% mucin was further added) described at page 9 of the above cited "Procedures for Isolation and Identification of Human, Animal and Plant Mycoplasmas" was heated and kept at 55° C. and put in an amount of 9 ml in each of the petri dishes containing the test chemicals and fully mixed with the test chemicals to prepare agar plates containing the test chemicals.
(§11) The mycoplasma suspension for inoculation prepared by the procedure described in section (1) was inoculated in an amount of about 3 microliters on each of the chemical-containing agar plates by means of a Cathra-replicator (3 mm pin). The plates on which Mycoplasma pneumoniae, Mycoplasma arginini, and Acholeplasma laidlawii and Mycoplasma hyorhinis were inoculated were tightly packed in a plastic bag together with the plasic petri dishes including water-immersed absorbent cotton. Mycoplasma pneumoniae was aerobically cultivated at 37° C. under highly humid conditions for 7 days; and Mycoplasma arginini and Acholeplasma laidlawii, for 2 days. The other mycoplasma species were cultivated anaerobically for 2 days by using a GasPak anaerobic system (BBL). After the cultivation, growth of mycoplasma were observed under an OLYMPUS microscope (20-100 X). The lowest concentration of the test chemical at which no growth of mycoplasma was noted is defined as MIC.

M. pnumoniae Mac = experiment: as above; format: cell-based, Mycoplasma pneumoniae; conditions: Mycoplasma
Description: as §4, §5, §6, §7, §8, §9, §10, §11

M. orale CH19299 = experiment: as above; format: cell-based, Mycoplasma orale; conditions: Metamycoplasma orale
Description: as §4, §5, §6, §7
(§12) For other mycoplasma species, Chanock liquid medium (pH 6.8) containing 0.2% arginine was used.
as §9, §10, §11

M. hyorhinis BST7 = experiment: as above; format: cell-based, Mycoplasma hyorhinis; conditions: Mesomycoplasma hyorhinis
Description: as §4, §5, §6, §7
For Mycoplasma hyorhinis, a liquid medium (pH 7.8) for isolation of Mycoplasma hyorhinis [Journal of the Japan Veterinary Medical Association,32, 34-38 (1979)] was used.
as §9, §10, §11

M. salivarium PG20 = experiment: as above; format: cell-based, Mycoplasma salivarium; conditions: Metamycoplasma salivarium
Description: as §4, §5, §6, §7, §12, §9, §10, §11

M. orale CH-19299 = experiment: Anti-mycoplasmal activity (MIC, MMC), liquid dilution method; format: cell-based, Mycoplasma orale; conditions: Metamycoplasma orale
Description: as §1, §2, §3

M. arginini G230 = experiment: Anti-mycoplasmal activity (MIC), agar-dilution method; format: cell-based, Mycoplasma arginini; conditions: Mycoplasmopsis arginini
Description: as §4, §5, §6, §7, §12, §9, §10, §11

M. arginini G-230 = experiment: Anti-mycoplasmal activity (MIC, MMC), liquid dilution method; format: cell-based, Mycoplasma arginini; conditions: Mycoplasmopsis arginini
Description: as §1, §2, §3

FL human-amnion cells = experiment: Cytotoxicity on FL cells (cell proliferation inhibition); format: cell-based; conditions: Homo sapiens, 72 h, read-out: IC50 (50% cell proliferation inhibitory concentration)
Description: Whether test chemicals would inhibit growth of cells was examined.
A 1,000 μg/ml aqueous solution of each of the test chemicals was serially diluted twofold with Eagle's minimum essential medium.
FL human-amnion cells (2×10^4 cells) were suspended in 3.6 ml of 10% FBS-MEM medium, put in petri dishes (diameter 60 mm) for tissue culture, and cultivated at 37° C. in 5% CO2 humidified atmosphere for 48 hours. The test chemical solution prepared as above was added in an amount of 0.4 ml to each of the petri dishes in predetermined concentrations, and the cells were cultivated for 3 days. After the cultivation, the medium was removed, and the remainder was washed once with Dulbecco's phosphate buffer (pH 7.4). The cells were peeled off by adding 0.2 ml of a 2.5% trypsin-0.002% EDTA mixed solution (1:9) and properly diluted with 10% FBS-MEM medium. Then, the number of the cells was counted by an Erma hemocytometer.
The cell proliferation rate was calculated by following formula [formula]

Structure (SMILES): C=C[C@]1(C)C[C@@H](OC(=O)CSCCN(CC)CC)[C@]2(C)[C@H](C)CC[C@]3(CCC(=O)[C@H]32)[C@@H](C)[C@@H]1O [tiamulin]
- minimum growth inhibitory concentration (MIC) for mycoplasma (mycoplasma): low
- mode of action on mycoplasma (mycoplasma): only act bacteriostatically and not mycoplasmacidally

Structure (SMILES): O=C(O)c1cn(C2CC2)c2cc(N3CCNCC3)c(F)cc2c1=O [Compound 2, ciprofloxacin]
- MIC (A. laidlawii PG-8; PG8): 0.39 µg/mL (≈ 1.18 µM)
- MBC (A. laidlawii PG-8; PG8, 120 h, read-out: MMC): 0.39 µg/mL (≈ 1.18 µM)
- MIC (A. laidlawii PG8; PG8): 0.39 µg/mL (≈ 1.18 µM)
- MIC (M. pnumoniae Mac): 0.39 µg/mL (≈ 1.18 µM)
- MIC (M. orale CH19299; CH19299): 1.56 µg/mL (≈ 4.71 µM)
- MIC (M. hyorhinis BST7; BST7): 0.78 µg/mL (≈ 2.35 µM)
- MIC (M. salivarium PG20; PG20): 3.13 µg/mL (≈ 9.45 µM)
- MIC (M. orale CH-19299; CH19299): 1.56 µg/mL (≈ 4.71 µM)
- MBC (M. orale CH-19299; CH19299, 120 h, read-out: MMC): 1.56 µg/mL (≈ 4.71 µM)
- MIC (M. arginini G230; G230): 0.78 µg/mL (≈ 2.35 µM)
- MIC (M. arginini G-230; G230): 0.78 µg/mL (≈ 2.35 µM)
- MBC (M. arginini G-230; G230, 120 h, read-out: MMC): 0.78 µg/mL (≈ 2.35 µM)
- IC50 (FL human-amnion cells): 28 µg/mL (≈ 84.5 µM)

- MIC (A. laidlawii PG8; agar dilution, A. laidlawii PG8, read-out: MIC): 0.78 µg/mL (≈ 2.16 µM)
- MIC (M. pnumoniae Mac; agar dilution, M. pnumoniae Mac, read-out: MIC): 0.78 µg/mL (≈ 2.16 µM)
- MIC (M. orale CH19299; agar dilution, M. orale CH19299, read-out: MIC): 1.56 µg/mL (≈ 4.32 µM)
- MIC (M. hyorhinis BST7; agar dilution, M. hyorhinis BST7, read-out: MIC): 3.13 µg/mL (≈ 8.66 µM)
- MIC (M. salivarium PG20; agar dilution, M. salivarium PG20, read-out: MIC): 6.25 µg/mL (≈ 17.3 µM)
- MIC (M. arginini G230; agar dilution, M. arginini G230, read-out: MIC): 0.78 µg/mL (≈ 2.16 µM)
Structure (SMILES): CC1COc2c(N3CCN(C)CC3)c(F)cc3c(=O)c(C(=O)O)cn1c23 (stereo not drawn) [Compound 4]

— patent US5051419A, “Prevention or elimination of mycoplasma contamination of animal or plant cell cultures” (Dainippon Pharmaceutical Co., Ltd., priority 1988, dated 1991)
